Data on four compounds can be found in BindingDB's records for doi:10.1021/jm00145a012 (1985).

Molecules are shown by their SMILES.

The target of the test is Dihydrofolate reductase (Bos taurus) (UniProt P00376). Nature of the test: In vitro inhibitory concentration against beef liver dihydrofolate reductase.
Sequence of Dihydrofolate reductase (Bos taurus) (P00376 whole entry, looked up): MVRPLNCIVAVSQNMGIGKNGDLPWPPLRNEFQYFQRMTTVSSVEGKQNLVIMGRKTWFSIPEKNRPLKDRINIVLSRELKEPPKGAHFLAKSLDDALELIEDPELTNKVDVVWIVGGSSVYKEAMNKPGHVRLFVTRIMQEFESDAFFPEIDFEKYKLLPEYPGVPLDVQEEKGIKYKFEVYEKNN
The IC50 is the concentration needed to halve the response being measured. A low value points to higher potency. Compound `Nc1nc2ncc(CCc3ccc(C(=O)N[C@@H](CCC(=O)O)C(=O)O)cc3)cc2c(=O)[nH]1` displayed an IC50 of 49 µM.

As for `Nc1nc(N)c2c(n1)NCC(CCc1ccc(C(=O)NC(CCC(=O)O)C(=O)O)cc1)C2` (centres undefined) [2-{4-[2-(2,4-Diamino-5,6,7,8-tetrahydro-pyrido[2,3-d]pyrimidin-6-yl)-ethyl]-benzoylamino}-pentanedioic acid], the IC50 amounted to 0.071 µM.

`Nc1nc(N)c2cc(CCc3ccc(C(=O)NC(CCC(=O)O)C(=O)O)cc3)cnc2n1` (centres undefined) [2-{4-[2-(2,4-Diamino-pyrido[2,3-d]pyrimidin-6-yl)-ethyl]-benzoylamino}-pentanedioic acid]: the IC50 was 0.043 µM.

The compound `Nc1nc2c(c(=O)[nH]1)CC(CCc1ccc(C(=O)NC(CCC(=O)O)C(=O)O)cc1)CN2` (centres undefined) [(DDATHF) 5,10-Dideazatetrahydrofolic acid2-{4-[2-(2-Amino-4-oxo-3,4,5,6,7,8-hexahydro-pyrido[2,3-d]pyrimidin-6-yl)-ethyl]-benzoylamino}-pentanedioic acid] gave an IC50 of 560 µM.
